The target of experiment [1] is T1, hTRPV1 (Homo sapiens, UniProt Q8NER1). Kind of experiment: FLIPR inhibition of TRPV1 activation by capsaicin. Type of experiment: cell-based. The following applies: for antagonism toward capsaicin (in words): capsaicin 100 nM, hTRPV1 in CHO cells.
Experiment [2] has as its system CCI-induced cold allodynia. Briefly: Mouse chronic constriction injury. Type of experiment: in vivo. Particulars: mouse CCI model, po.
For experiment [3], the target named is T1, hTRPV1. Kind of experiment: hTRPV1 antagonism toward heat. Type of experiment: cell-based.
Experiment [4] concerns the target T1, hTRPV1. Briefly: hTRPV1 antagonism toward pH activation. Type of experiment: cell-based. Particulars: activator pH.
Experiment [5] has as its target T1, hTRPV1. Briefly: hTRPV1 antagonism toward NADA activation. The format is cell-based. Particulars: activator NADA.

T1 sequence (Q8NER1 whole entry): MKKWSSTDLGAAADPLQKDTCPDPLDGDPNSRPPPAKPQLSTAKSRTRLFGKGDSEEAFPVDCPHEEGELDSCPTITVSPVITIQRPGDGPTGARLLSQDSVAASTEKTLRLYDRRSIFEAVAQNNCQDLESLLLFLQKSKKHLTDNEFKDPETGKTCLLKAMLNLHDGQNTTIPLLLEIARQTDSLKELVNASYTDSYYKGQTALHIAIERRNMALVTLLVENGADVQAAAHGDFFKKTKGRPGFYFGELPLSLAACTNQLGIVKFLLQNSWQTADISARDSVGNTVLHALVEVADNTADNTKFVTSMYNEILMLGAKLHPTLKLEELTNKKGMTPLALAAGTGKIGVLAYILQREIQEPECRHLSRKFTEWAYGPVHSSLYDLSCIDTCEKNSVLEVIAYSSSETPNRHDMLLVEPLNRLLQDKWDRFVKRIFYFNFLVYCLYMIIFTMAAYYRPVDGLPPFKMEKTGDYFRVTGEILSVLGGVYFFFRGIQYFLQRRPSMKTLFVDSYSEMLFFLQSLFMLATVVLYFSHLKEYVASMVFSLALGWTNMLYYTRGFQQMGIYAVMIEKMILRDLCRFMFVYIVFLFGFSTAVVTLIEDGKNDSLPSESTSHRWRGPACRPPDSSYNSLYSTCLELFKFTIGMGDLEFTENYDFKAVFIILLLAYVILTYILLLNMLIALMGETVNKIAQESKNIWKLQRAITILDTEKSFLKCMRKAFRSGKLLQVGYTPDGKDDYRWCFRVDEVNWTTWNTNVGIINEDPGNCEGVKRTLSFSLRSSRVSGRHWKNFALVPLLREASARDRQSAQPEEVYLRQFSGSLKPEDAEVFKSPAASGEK

In the case of `CC(C(=O)NCc1ccc(C(F)(F)F)nc1-c1ccccc1)c1ccc(NS(C)(=O)=O)c(F)c1` (stereo not drawn) [Compound 8], the “fold less potent than the 2-cyclohexyl derivative” value on hTRPV1 [1] (Ki(CAP) relative to 2-cyclohexyl derivative) is “ca. 10 fold”. Further, at hTRPV1 [1], the “antagonism toward capsaicin (in words)” value is reported as “reasonable antagonism”. Turning to `CC(C(=O)NCc1ccc(C(F)(F)F)nc1-c1ccc(F)cc1)c1ccc(NS(C)(=O)=O)c(F)c1` (stereo not drawn) [Compound 9], the “anti-allodynic efficacy (limited efficacy)” value in experiment [2] is 53 % MPE. For the same compound, at hTRPV1 [3], half-maximal inhibition (IC50) was put at 25.9 nM. The “antagonism toward heat (in words)” value on hTRPV1 [3] (activator heat) was “moderate antagonism”. In addition, the “fold increase in potency compared to 8” value at hTRPV1 [1] (Ki(CAP) relative to parent 8) is reported as 16 fold. For the same compound, at hTRPV1 [1], the “antagonism toward capsaicin (in words)” value is given as “excellent antagonism”. Besides, the “antagonism toward pH (in words)” value at hTRPV1 [4] is “moderate antagonism”. Moreover, the “antagonism toward NADA (in words)” value at hTRPV1 [5] is recorded as “excellent antagonism”.

For the compound `CC(C(=O)NCc1ccc(C(F)(F)F)nc1-c1cccc(F)c1)c1ccc(NS(C)(=O)=O)c(F)c1` (stereo not drawn) [Compound 10], at hTRPV1 [1] (Ki(CAP) relative to parent 8), the “fold increase in potency compared to 8” value is 5 fold. In the case of `CC(C(=O)NCc1ccc(C(F)(F)F)nc1-c1ccccc1F)c1ccc(NS(C)(=O)=O)c(F)c1` (stereo not drawn) [Compound 11], the “fold reduction in potency compared to 8” value at hTRPV1 [1] (Ki(CAP) relative to parent 8) was found to be 10 fold.

With `CC(C(=O)NCc1ccc(C(F)(F)F)nc1-c1ccc(Cl)cc1)c1ccc(NS(C)(=O)=O)c(F)c1` (stereo not drawn) [Compound 12], on hTRPV1 [1] (Ki(CAP) relative to parent 8), the “fold increase in potency compared to 8” value is 9 fold. Consider `CC(C(=O)NCc1ccc(C(F)(F)F)nc1-c1cccc(Cl)c1)c1ccc(NS(C)(=O)=O)c(F)c1` (stereo not drawn) [Compound 13], for which the “fold increase in potency compared to 8” value at hTRPV1 [1] (Ki(CAP) relative to parent 8) stood at 13 fold. As to `COc1ccc(-c2nc(C(F)(F)F)ccc2CNC(=O)C(C)c2ccc(NS(C)(=O)=O)c(F)c2)cc1` (stereo not drawn) [Compound 14], the “fold increase in potency compared to 8” value on hTRPV1 [1] (Ki(CAP) relative to parent 8) was found to be 6 fold. Still for that read-out and setting: the same measure for `CC(C(=O)NCc1ccc(C(F)(F)F)nc1-c1ccc(N(C)C)cc1)c1ccc(NS(C)(=O)=O)c(F)c1` (stereo not drawn) [Compound 15]: 2 fold; for `CC(C(=O)NCc1ccc(C(F)(F)F)nc1-c1ccc(C(C)(C)C)cc1)c1ccc(NS(C)(=O)=O)c(F)c1` (stereo not drawn) [Compound 16]: 13 fold. On to `CC(C(=O)NCc1ccc(C(F)(F)F)nc1-c1cccc(NS(C)(=O)=O)c1)c1ccc(NS(C)(=O)=O)c(F)c1` (stereo not drawn) [Compound 17], for which the “antagonism toward capsaicin (in words)” value on hTRPV1 [1] is “lack of activity”. Turning to `CC(C(=O)NCc1ccc(C(F)(F)F)nc1-c1ccc(F)c(Cl)c1)c1ccc(NS(C)(=O)=O)c(F)c1` (stereo not drawn) [Compound 18], on hTRPV1 [1] (Ki(CAP) relative to parent 8), the “fold increase in potency compared to 8” value is reported as “ca. 30 fold”. With `Cc1cc(-c2nc(C(F)(F)F)ccc2CNC(=O)C(C)c2ccc(NS(C)(=O)=O)c(F)c2)ccc1F` (stereo not drawn) [Compound 19], the “antagonism toward capsaicin (in words)” value on hTRPV1 [1] is “retained high potencies”.

With `CC(C(=O)NCc1ccc(C(F)(F)F)nc1-c1ccc(Cl)c(Cl)c1)c1ccc(NS(C)(=O)=O)c(F)c1` (stereo not drawn) [Compound 20], the “antagonism toward capsaicin (in words)” value on hTRPV1 [1] was “retained high potencies”.

Consider `CC(C(=O)NCc1ccc(C(F)(F)F)nc1-c1cccs1)c1ccc(NS(C)(=O)=O)c(F)c1` (stereo not drawn) [Compound 26], for which, on hTRPV1 [1] (Ki(CAP) relative to parent 8), the “fold increase in potency compared to 8” value is “ca. 20 fold”. `CC(C(=O)NCc1ccc(C(F)(F)F)nc1-c1ccsc1)c1ccc(NS(C)(=O)=O)c(F)c1` (stereo not drawn) [Compound 27]: the “antagonism toward capsaicin (in words)” value on hTRPV1 [1] is “potent antagonist”. On the same count and under the same terms, the value for `CC(C(=O)NCc1ccc(C(F)(F)F)nc1-c1ccco1)c1ccc(NS(C)(=O)=O)c(F)c1` (stereo not drawn) [Compound 28] was “higher potency than phenyl derivative 8”; that for `CC(C(=O)NCc1ccc(C(F)(F)F)nc1-c1ccoc1)c1ccc(NS(C)(=O)=O)c(F)c1` (stereo not drawn) [Compound 29] was “higher potency than phenyl derivative 8”; that for `CC(C(=O)NCc1ccc(C(F)(F)F)nc1-n1ccnc1)c1ccc(NS(C)(=O)=O)c(F)c1` (stereo not drawn) [Compound 30] was “weak antagonist”. As to `CC(C(=O)NCc1ccc(C(F)(F)F)nc1Cc1ccccc1)c1ccc(NS(C)(=O)=O)c(F)c1` (stereo not drawn) [Compound 35], the “antagonism toward capsaicin (in words)” value at hTRPV1 [1] is recorded as “weak antagonist”.

Take `CC(C(=O)NCc1ccc(C(F)(F)F)nc1CCc1ccccc1)c1ccc(NS(C)(=O)=O)c(F)c1` (stereo not drawn) [Compound 36]: the “antagonism toward capsaicin (in words)” value on hTRPV1 [1] is reported as “dramatic increase in antagonism”.

These data come from publication PMC6980356 (Bioorganic & medicinal chemistry letters, 2014).
